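96-well plates; 48 h exposure; 5 concentrations. Endpoints by linear interpolation between flanking doses. Not reached: highest tested concentration assigned. Abbreviation: GI50, concentration required for 50% inhibition of growth. TGI is the concentration that stops growth completely.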
Legend:
Assay in all cases: NCI anticancer screen, dose series, 48 h
MCF7 breast = system: MCF7 breast
SF-268 CNS = system: SF-268 CNS
NCI/ADR-RES ovarian = system: NCI/ADR-RES ovarian
RPMI-8226 leukemia = system: RPMI-8226 leukemia
HL-60(TB) leukemia = system: HL-60(TB) leukemia
MDA-MB-435 = system: MDA-MB-435
NCI-H522 lung = system: NCI-H522 lung
UACC-62 melanoma = system: UACC-62 melanoma
SK-MEL-2 melanoma = system: SK-MEL-2 melanoma
TK-10 renal = system: TK-10 renal

Structure (SMILES) | GI50 (MCF7 breast) [µM] | TGI (MCF7 breast) [µM] | GI50 (SF-268 CNS) [µM] | TGI (SF-268 CNS) [µM] | GI50 (NCI/ADR-RES ovarian) [µM] | TGI (NCI/ADR-RES ovarian) [µM] | GI50 (RPMI-8226 leukemia) [µM] | TGI (RPMI-8226 leukemia) [µM] | GI50 (HL-60(TB) leukemia) [nM] | TGI (HL-60(TB) leukemia) [µM] | GI50 (MDA-MB-435) [nM] | TGI (MDA-MB-435) [µM] | GI50 (NCI-H522 lung) [nM] | TGI (NCI-H522 lung) [µM] | GI50 (UACC-62 melanoma) [µM] | TGI (UACC-62 melanoma) [µM] | GI50 (SK-MEL-2 melanoma) [µM] | TGI (SK-MEL-2 melanoma) [µM] | GI50 (TK-10 renal) [µM] | TGI (TK-10 renal) [µM]
CNC(=O)c1ncccc1Nc1nc(Nc2cc3c(cc2OC)CCCN3C(=O)CN(C)C)nc2[nH]ccc12 | 0.073 | 2.73 | 1.46 | 5.4 | 0.724 | 2.74 | 0.842 | 3.89 | 92.1 | 0.803 | 244 | 1.78 | 638 | 2.84 | 3.07 | 6.45 | 0.877 | 3.89 | 2.22 | 6.7
N#CC1(c2ccc(NC(=O)c3cccnc3NCc3ccncc3)cc2)CCCC1 | 10.6 | 49.5 | 27 | > 100 | 12.9 | 62.5 | 6.73 | 31.4 | 11900 | 45.9 | 13400 | 37.4 | 7600 | 35.1 | 8.02 | 23.9 | 11.9 | 32 | 23.5 | > 74.3
CN[C@@H](C)C(=O)N[C@H]1CN(S(=O)(=O)c2cccc(S(=O)(=O)N3CC[C@H]4CC[C@@H](C(=O)NC(c5ccccc5)c5ccccc5)N4C(=O)[C@@H](NC(=O)[C@H](C)NC)C3)c2)CC[C@H]2CC[C@@H](C(=O)NC(c3ccccc3)c3ccccc3)N2C1=O | 6.93 | 29.2 | 20.9 | 47.8 | > 100 | > 100 | 3.92 | 99.2 | 31.7 | 1.69 | 1890 | 21.6 | 2430 | 34.8 | 18 | 38.9 | < 0.0223 | 10.9 | 55.9 | > 100
O=C1c2cccc(Oc3ccccc3)c2C(=O)c2cccc(Oc3ccccc3)c21 | > 100 | > 100 | 39.8 | > 100 | > 100 | > 100 | > 100 | > 100 | > 100000 | > 100 | > 100000 | > 100 | > 100000 | > 100 | > 100 | > 100 | 96.7 | > 100 | > 100 | > 100
O=C(NCCNCCO)c1ccc2c(c1)oc1cc3ccccc3c(=O)n12 | 31.1 | > 50 | 19.6 | > 50 | > 50 | > 50 | 33.8 | > 50 | 25600 | > 50 | > 50000 | > 50 | 18200 | > 50 | > 50 | > 50 | 12.8 | 44.7 | 1.48 | 19.6
O=C1C=C[C@H](O)[C@@]2(CO)O[C@@H]12 | 5.38 | 23.8 | 15.3 | 29 | 16.6 | 45.8 | 3.38 | 12 | 2650 | 8.3 | 9920 | > 51.5 | 1810 | 3.79 | 4.55 | 14.3 | 14.6 | 33.5 | 16.1 | 29.8
CCNc1nc(O)c(/C=C2\C=Nc3ncccc32)s1 | 2.55 | > 100 | 2.3 | 7.85 | 10.5 | > 100 | 11.7 | 68 | 2530 | 10.2 | 3490 | 14.9 | 1250 | 8.83 | 3.01 | 9.11 | 3.04 | 8.93 | 2.78 | 95
Cc1ccc(O)cc1Nc1ccnc2ccc(S(C)(=O)=O)cc12 | > 25 | > 25 | 2.67 | > 25 | 15.9 | > 25 | > 25 | > 25 | 10200 | > 25 | 4920 | > 25 | 5080 | > 22.1 | 0.843 | 10.4 | 6.91 | 24.9 | 0.484 | 2.23
O=C(/C=C/C12c3ccccc3C(c3ccccc31)C1C(=O)NC(=O)C12)c1ccccn1 (centres undefined) | 0.562 | 2.43 | 1.61 | 4.35 | 2.81 | 10.1 | 1.22 | 4.3 | 1020 | 3.41 | 1770 | 5.15 | 1520 | 3.37 | 1.62 | 3.1 | 1.76 | 3.95 | 2.35 | 5.31
CCN1C(=S)N(CC)C2C1NC(=S)N2/N=C/C=C/c1ccccc1OC (centres undefined) | 0.171 | > 100 | 0.913 | 44.8 | 0.237 | – | 0.377 | 7.08 | 229 | 0.597 | 36.8 | 0.177 | 137 | 1.19 | 0.33 | 25.6 | 0.615 | 56.7 | 7.69 | 98.9
Nc1nc2c(c3cnccc13)C(c1ccc(Cl)c(Cl)c1)Cc1cnccc1-2 (centres undefined) | 0.305 | 11.7 | 1.18 | 18.3 | 0.43 | 7.69 | 0.788 | 12.9 | 384 | 2.34 | 241 | 0.646 | 249 | 0.73 | 0.352 | 2.44 | 0.401 | 1.86 | 1.18 | 9.48
CCn1c2c(c3ccccc3c1=O)C(=O)c1ccccc1-2 | – | > 100 | – | > 100 | – | > 100 | – | > 100 | – | > 100 | – | > 100 | – | > 100 | – | > 100 | – | > 100 | – | > 100
COc1ccc(OC)c(/C=C/c2nc(=S)n(-c3ccc(Cl)cc3)[nH]2)c1 | 4.44 | > 100 | 17.5 | > 100 | 3.63 | > 100 | 5.22 | > 100 | 3570 | > 100 | 2830 | > 100 | 4070 | > 100 | 3.11 | > 100 | 4.05 | > 100 | 25.8 | > 100
c1ccc(-c2[nH]ncc2-c2ccnc(-c3ccc(OCCn4ccnc4)cc3)c2)nc1 | > 25 | > 25 | > 25 | > 25 | > 25 | > 25 | > 20.6 | > 25 | > 25000 | > 25 | 24500 | > 25 | > 25000 | > 25 | > 25 | > 25 | > 25 | > 25 | > 25 | > 25
Cc1cccc(NC(=O)c2sc3nc4c(cc3c2N)C(=O)CCC4)c1 | 0.157 | > 100 | 3.07 | > 100 | 0.259 | > 49.8 | 0.594 | > 100 | 393 | > 100 | 30.2 | 0.126 | 124 | 1.68 | 0.49 | > 89.1 | 0.266 | > 54.2 | > 100 | > 100
CC1=C(C(=O)Nc2ccccc2)C(c2ccc(N(C)C)cc2)C(C(=O)Nc2ccccc2)=C(C)N1 | – | > 100 | – | > 71.6 | – | > 100 | – | 72.9 | – | 49.4 | – | > 26.7 | – | 81.2 | – | 23.9 | – | > 100 | – | > 100
